# Laboratory results reported in patent US8188273B2, “Insecticidal (1,3,5)-triazinyl phenyl hydrazones” (Dow AgroSciences, LLC., priority 2007, dated 2012).
# Like-named read-outs stand apart in the source and are kept apart here.
# Legend:
# [1] = system: beet armyworm (Spodoptera exigua); assay: Insecticidal test on treated lepidopteran diet, beet armyworm; assay type: in vivo; conditions: 120 h, read-out: AVG LAPHEG 50 (percent control, beet army worm)
# Procedure: (§1) The compounds identified in Table 1 were prepared according to the previous methods and were tested against beet armyworm and corn earworm as follows:
# (§2) Insecticidal Test for Corn Earworm (Helicoverpa zea) and Beet Armyworm (Spodoptera exigua).
# (§3) To prepare test solution, the test compound was formulated at 2000 ppm solution as 4 mg/2 mL of 9 acetone:1 tap water. 50 μL of the 2000 ppm (equivalent to 50 μg/cm^2 dose on diet surface area) test solution was pipetted upon the surface of 1 mL of lepidopteran diet (Southland Multi-Species Lepidopteran Diet) contained in each of eight wells per insect species (one well=1 replication). A second-instar corn earworm and beet armyworm was placed upon the treated diet in each well once the solvent had air-dried. Trays containing the treated diet and larvae were covered and then held in a growth chamber at 25° C., 50-55% RH, and 16 hr light:8 hr dark for 5 days. Observation were conducted 5 days after treatment and infestation. The number of dead insects of 8 per species per treatment was then determined and the results are given in Table 1 as a percent control at a dose of […].
# (§4) Keys to the table: Mass spectral data were obtained using liquid chromatography mass spectroscopy (LC-MS). The masses are detected using electrospray ionization (ESI) and reported as Mol Ion (M+H, M−H); AVG LAPHEG 50 refers to activity against beet army worm (Spodoptera exigua) as defined above; AVG HELIZE 50 refers to activity against corn ear worm (Helicoverpa zea) as described above.
# [2] = system: corn earworm (Helicoverpa zea); assay: Insecticidal test on treated lepidopteran diet, corn earworm; assay type: in vivo; conditions: 120 h, read-out: AVG HELIZE 50 (percent control, corn ear worm)
# Procedure: as §1, §2, §3, §4
# [3] = second-instar larvae on treated diet, 8 wells, dose of 50 mg/cm^2 [sic] (2000 ppm, 50 μL), dead insects counted 5 days after treatment
Compound,"pest or weed control at 2000 µg/mL [1, 3] [%]","pest or weed control at 2000 µg/mL [2, 3] [%]",pest or weed control at 2000 µg/mL [1] [%],pest or weed control at 2000 µg/mL [2] [%]
O=C1CN(c2nc(N/N=C/c3cccc(C(F)(F)F)c3)nc(Nc3ccc(OC(F)(F)F)cc3)n2)CCN1 [Compound 7],100,100,–,–
Fc1ccc(Nc2nc(Cl)nc(N/N=C/c3ccc(OC(F)(F)F)cc3)n2)cc1C(F)(F)F [Compound 88],100,100,–,–
COc1cccc(/C=N/Nc2nc(NCc3ccc(Cl)nc3)nc(Nc3ccc(F)c(C(F)(F)F)c3)n2)c1 [Compound 66],100,100,–,–
FC(F)(F)COc1nc(N/N=C/c2ccccc2C(F)(F)F)nc(Nc2ccc(OC(F)(F)F)cc2)n1 [Compound 32],100,100,–,–
C/C(=N\Nc1nc(Nc2ccc(OC(F)(F)F)cc2)nc(N2CCOCC2)n1)c1cccc(C#N)c1 [Compound 5],100,100,–,–
FC(F)C(F)(F)Oc1ccc(Nc2ncnc(N/N=C/c3cccc(C(F)(F)F)c3)n2)cc1 [Compound 104],50,88,–,–
CONc1nc(N/N=C/c2cccc(C(F)(F)F)c2)nc(Nc2ccc(OC(F)(F)F)cc2)n1 [Compound 58],100,100,–,–
FC(F)(F)COc1nc(N/N=C/c2ccc(Br)cc2)nc(Nc2ccc(OC(F)(F)F)cc2)n1 [Compound 98],100,100,–,–
FC(F)(F)Oc1ccc(Nc2nc(N/N=C/c3c(Cl)cccc3Cl)nc(N3CCOCC3)n2)cc1 [Compound 44],13,0,–,–
Fc1cc(C(F)(F)F)ccc1Nc1nc(N/N=C/c2cccc(OC(F)(F)C(F)F)c2)nc(N2CCOCC2)n1 [Compound 81],100,100,–,–
Fc1ccc(Nc2nc(NCc3ccc(Cl)nc3)nc(N/N=C/c3ccc(Cl)c(Cl)c3)n2)cc1C(F)(F)F [Compound 71],100,100,–,–
CCOc1nc(N/N=C/c2cccc(C(F)(F)F)c2)nc(Nc2cccc(C(F)(F)F)c2)n1 [Compound 13],0,75,–,–
CCOCCNc1nc(N/N=C/c2ccc(OC(F)(F)F)cc2)nc(Nc2ccc(OC(F)(F)F)cc2)n1 [Compound 25],100,100,–,–
Cc1cnc(CNc2nc(N/N=C/c3ccc(OC(F)(F)F)cc3)nc(Nc3ccc(F)c(C(F)(F)F)c3)n2)cn1 [Compound 57],100,100,–,–
FC(F)C(F)(F)Oc1ccc(Nc2nc(NCc3ccc(Cl)nc3)nc(N/N=C/c3ccc(Cl)cc3)n2)cc1 [Compound 87],100,100,–,–
Fc1ccccc1/C=N/Nc1nc(Nc2ccc(OC(F)(F)F)cc2)nc(OCC(F)(F)F)n1 [Compound 31],100,100,–,–
FC(F)C(F)(F)Oc1cccc(/C=N/Nc2nc(Nc3ccc(OC(F)(F)F)cc3)nc(OCC(F)(F)F)n2)c1 [Compound 28],100,100,–,–
CCOc1nc(N/N=C/c2ccc(OC(F)(F)F)cc2)nc(Nc2cccc(C(F)(F)F)c2)n1 [Compound 12],100,100,–,–
Fc1ccc(Nc2nc(NCc3ccc(Cl)nc3)nc(N/N=C/c3cccc(Cl)c3)n2)cc1C(F)(F)F [Compound 75],100,100,–,–

Compound,"pest or weed control at 2000 µg/mL [1, 3] [%]","pest or weed control at 2000 µg/mL [2, 3] [%]",pest or weed control at 2000 µg/mL [1] [%],pest or weed control at 2000 µg/mL [2] [%]
FCCOc1ccc(/C=N/Nc2nc(NCc3ccc(Cl)nc3)nc(Nc3ccc(F)c(C(F)(F)F)c3)n2)cc1 [Compound 95],–,–,75,38
Fc1ccc(Nc2ncnc(N/N=C/c3cccc(C(F)(F)F)c3)n2)cc1C(F)(F)F [Compound 102],100,100,–,–
Fc1ccc(Nc2nc(NCc3ccc(C(F)(F)F)nc3)nc(N/N=C/c3ccc(OC(F)(F)F)cc3)n2)cc1C(F)(F)F [Compound 77],100,100,–,–
FC(F)(F)COc1nc(N/N=C/c2ccccc2Br)nc(Nc2ccc(OC(F)(F)F)cc2)n1 [Compound 34],100,100,–,–
CCOc1nc(N/N=C/c2cccc(C(F)(F)F)c2)nc(Nc2ccc(OC(F)(F)F)cc2)n1 [Compound 10],13,0,–,–
FC(F)C(F)(F)Oc1cccc(/C=N/Nc2nc(Nc3ccc(OC(F)(F)F)cc3)nc(N3CCOCC3)n2)c1 [Compound 61],100,100,–,–
FC(F)(F)Oc1ccc(/C=N/Nc2nc(Nc3cccc(C(F)(F)F)c3)nc(N3CCOCC3)n2)cc1 [Compound 62],100,100,–,–
FC(F)C(F)(F)Oc1ccc(/C=N/Nc2ncnc(Nc3cccc(C(F)(F)F)c3)n2)cc1 [Compound 100],100,100,–,–
N#Cc1ccc(/C=N/Nc2nc(NCc3ccc(Cl)nc3)nc(Nc3ccc(OC(F)(F)C(F)F)cc3)n2)cc1 [Compound 96],100,100,–,–
CCOc1nc(N/N=C/c2ccc(OC)cc2)nc(Nc2cccc(C(F)(F)F)c2)n1 [Compound 14],25,13,–,–
FC(F)(F)Oc1ccc(Nc2nc(N/N=C/c3cccc(Br)c3)nc(N3CCOCC3)n2)cc1 [Compound 38],0,100,–,–
Fc1ccc(/C=N/Nc2nc(NCc3ccc(Cl)nc3)nc(Nc3ccc(F)c(C(F)(F)F)c3)n2)cc1 [Compound 76],100,100,–,–
Fc1ccc(Nc2nc(N/N=C/c3ccc(OC(F)(F)F)cc3)nc(N3CCOCC3)n2)cc1C(F)(F)F [Compound 54],100,100,–,–
CCOc1nc(N/N=C/c2ccc(F)cc2)nc(Nc2ccc(OC(F)(F)F)cc2)n1 [Compound 11],13,100,–,–
FC(F)(F)Oc1ccc(Nc2nc(N/N=C/c3ccc(Cl)cc3Cl)nc(N3CCOCC3)n2)cc1 [Compound 40],25,0,–,–
"Fc1ccc(Nc2ncnc(N/N=C/c3ccc(OC(F)(F)F)cc3)n2)cc1C(F)(F)F [Compound 3, (4-Fluoro-3-trifluoromethylphenyl)-(4-{N′-[1-(4-trifluoromethoxyphenyl)-methylidene]-hydrazino}-[1,3,5]triazin-2-yl)-amine]",100,100,–,–
Fc1ccc(Nc2nc(NCc3ccc(Cl)nc3)nc(N/N=C/c3ccc(OC(F)(F)C(F)F)cc3)n2)cc1C(F)(F)F [Compound 63],100,100,–,–
FC(F)(F)Oc1ccc(Nc2nc(N/N=C/c3ccccc3Br)nc(N3CCOCC3)n2)cc1 [Compound 43],13,0,–,–
CCCOc1ccc(Nc2nc(N/N=C/c3cccc(OC(F)(F)C(F)F)c3)nc(N3CCOCC3)n2)cc1 [Compound 79],13,100,–,–
